In patent US5932555A (priority 1997, dated 1999):
In brackets after ≈: the same amount, converted by molar mass. Read-outs that look alike come from different tables or passages of the source.

Key:
[1] = tested on: ICR mice; assay: Acute toxicity test
[2] = Acute toxicity test; details: mouse, in vivo, iv
[3] = tested on: adriamycin-resistant P388; assay: Cytotoxicity test on adriamycin-resistant P388 (P388/ADR) (MTT, 72 h); format: cell-based
Experimental: Cultured tumor cell lines P388 and P388/ADR were suspended in RPMI1640 medium containing 10% heat inactivated fetal calf serum (FCS) and 20 μM 2-mercaptoethanol whereby a cell suspension (5×10^4 cells/ml) was prepared.
A sample examined was dissolved in methanol, then diluted with RPMI 1640 medium and subjected to serial 2-fold dilution starting at the concentration of 0.1 mg/ml. 180 μl of the cell suspension and 20 μl of the sample solution were added into a 96-well micro-titer plate and incubated at 37° C. in wet 5% CO2 gas/95% air. 72 hours thereafter, cell growth was measured by a calorimetric assay method using 3-(4,5-dimethyl-2-thiazolyl)-2,5-diphenyl-2H-tetrazolium bromide (MTT) as follows: 20 μl of 2 mg/ml MTT solution was added to each well and the cells were incubated for 4 hours at 37° C. Thereafter, 50 μl of 50% dimethylformamide solution containing 20% sodium dodecyl sulfate was added to each well and allowed to stand, so that the formed violet formazan crystal was dissolved, and its absorbance at 570 nm was measured in a microplate absorbance photometer (Immunoreader) and used as an indicator of the growth. The result was expressed in terms of the concentration of a sample at which growth was inhibited by 50% (IC50), which was determined from the relationship between sample concentrations and degrees of inhibition calculated using the following equation (1):
Degree of inhibition=[1-(absorbance in presence of sample)/(absorbance in
absence of sample)]×100 (1)

[4] = tested on: P388/ADR; assay: Mouse in vivo antitumor test, P388/ADR transplanted; details: for T/C / average body weight after 10 days / average survival days: P388/ADR
Experimental: 2×10^5 cells of P388 or P388/ADR were inoculated intraperitoneally into each of CDF1 mice (male, each weighing 20 g, 10 animals/group), and from the next day, the test solution was administered at 10, 5, and 1 mg/kg body weight/day respectively by intraperitoneal injection of 200 μl sample at each concentration once a day for 10 successive days. The numbers with time of mice which survived after administration was counted and the average survival days and T/C (survival days of treated mice/survival days of control mice) were calculated. The average body weights after 10 days were also measured.

[5] = Repeated administration toxicity test (intraperitoneal); format: in vivo, mouse (CDF1); details: mouse, in vivo, ip, read-out: Fatality rate
Experimental: (§1) As the comparative control, test solutions of adriamycin were prepared in the same manner. […] The number with time of survived animals after administration and the average body weights on Days 0, 5, and 10 were determined.

[6] = tested on: CDF1 mice; assay: as above; format: in vivo, mouse (CDF1); details: for Body weight, Day 0: Day 0 (baseline)
Experimental: as §1

[7] = tested on: cytotoxic T cell induction by allogenic immunization; assay: In vivo mouse cytotoxic T cell induction test; parameters: species or system mouse (C57BL/6)
Experimental: A 8-week-old, female C57BL/6 mouse (H-2^b) was immunized intraperitoneally with 0.2 ml of cultured cell line P815 suspension (5×10^7 cells/ml PBS) derived from DBA/2 (H-2^d), and 0.2 to 0.3 ml of 0.1 mg/ml sample was administered intraperitoneally at a dosage of 1 mg/kg body weight/day for 5 days including the day of immunization.
To measure cytotoxic T cell activity, 100 μl of the effector cell suspension and 100 μl of the target cell suspension were put to each well on a 96-well round-bottomed microplate and incubated at 37° C. for 4 hours, and the cells were centrifuged and the amount of ^51 Cr released into the supernatant was measured and the cytotoxic T cell activity was calculated using the following equation 2:
Cytotoxic T cell activity=A/B×100 (2)
A: (radioactivity of effector cells+target cells)-(radioactivity of only target cells)
B: (radioactivity of target cells treated with 0.1 N HCl)-(radioactivity of only target cells)
The cytotoxic T cell activity was expressed in terms of lytic unit (LU). One LU is defined as the number of effector cells required for 20% lysis of 2×10^4 target cells, and the result is shown in LU per spleen.
Similarly, the mouse was immunized and then administered 0.2 to 0.3 ml of 1 mg/ml of the sample (i.e. at a dosage of 10 mg/kg body weight/day) by intraperitoneal administration for 5 days and the cytotoxic activity was determined.

COC(CC1C(C)=CCC2C1(C)CCC1C(C)(C)C(O)C(OC3OC(C)C(OC(=O)c4cccc(O)c4)C(OC4OC(CO)C(O)C(O)C4NC(C)=O)C3O)CC12C)C(N)C(=O)O (centres unmarked) [0406TP-1]
survival ([1]; 100 mg/kg i.v., one month observation): all survived
toxicity and safety ([1]; acute toxicity test, in words): low toxicity
LD50 at 730 h [2]: > 100 mg/kg
IC50 ([3]; Mus musculus, adriamycin-resistant P388, 72 h, MTT, read-out: IC50 (growth inhibition)): 0.22 µg/mL (≈ 0.246 µM)
inhibition on growth of adriamycin-resistant cells ([3]; in words): strong inhibition
T/C ([4]; 1 mg/kg/day i.p. × 10 days): 130%
average body weight after 10 days ([4]; 1 mg/kg/day i.p. × 10 days): 26.2 g
average survival days ([4]; 1 mg/kg/day i.p. × 10 days): 14.4 days
T/C ([4]; 5 mg/kg/day i.p. × 10 days): 133%
average body weight after 10 days ([4]; 5 mg/kg/day i.p. × 10 days): 27.3 g
average survival days ([4]; 5 mg/kg/day i.p. × 10 days): 14.8 days
T/C ([4]; 10 mg/kg/day i.p. × 10 days): 165%
average body weight after 10 days ([4]; 10 mg/kg/day i.p. × 10 days): 26.4 g
average survival days ([4]; 10 mg/kg/day i.p. × 10 days): 18.3 days
therapeutic effect ([4]; P388/ADR-transplanted mice): significant therapeutic effect
mortality ([5]; 1 mg/kg/day i.p. × 10 days): 0%
mortality ([5]; 5 mg/kg/day i.p. × 10 days): 0%
mortality ([5]; 10 mg/kg/day i.p. × 10 days): 0%
Body weight, Day 0 ([6]; 1 mg/kg/day i.p. group): 22.0 g
Body weight, Day 5 ([6]; 1 mg/kg/day i.p.): 23.1 g
Body weight, Day 10 ([6]; 1 mg/kg/day i.p.): 25.0 g
Body weight, Day 0 ([6]; 5 mg/kg/day i.p. group): 21.8 g
Body weight, Day 5 ([6]; 5 mg/kg/day i.p.): 23.7 g
Body weight, Day 10 ([6]; 5 mg/kg/day i.p.): 25.5 g
Body weight, Day 0 ([6]; 10 mg/kg/day i.p. group): 21.4 g
Body weight, Day 5 ([6]; 10 mg/kg/day i.p.): 23.6 g
Body weight, Day 10 ([6]; 10 mg/kg/day i.p.): 25.4 g
Cytotoxic T cell activity ([7]; 1.0 mg/kg/day × 5 days i.p.): 350 LU/spleen
Cytotoxic T cell activity inhibition ([7]; 1.0 mg/kg/day × 5 days i.p.): 12%
Cytotoxic T cell activity ([7]; 10 mg/kg/day × 5 days i.p.): 285 LU/spleen
Cytotoxic T cell activity inhibition ([7]; 10 mg/kg/day × 5 days i.p.): 38%
inhibition of induction of cytotoxic T cells in spleen cells ([7]; allogenic-immunized mouse, intraperitoneal, in words): inhibit induction of cytotoxic T cells
